# According to ChEMBL document CHEMBL1140113, “Structural requirements for drug inhibition of the liver specific human organic cation transport protein 1” (J Med Chem, 2008):
# Molecular target: T1, OCT1 (SLC22A1) (Homo sapiens, UniProt O15245)
# T1 sequence (O15245 whole entry): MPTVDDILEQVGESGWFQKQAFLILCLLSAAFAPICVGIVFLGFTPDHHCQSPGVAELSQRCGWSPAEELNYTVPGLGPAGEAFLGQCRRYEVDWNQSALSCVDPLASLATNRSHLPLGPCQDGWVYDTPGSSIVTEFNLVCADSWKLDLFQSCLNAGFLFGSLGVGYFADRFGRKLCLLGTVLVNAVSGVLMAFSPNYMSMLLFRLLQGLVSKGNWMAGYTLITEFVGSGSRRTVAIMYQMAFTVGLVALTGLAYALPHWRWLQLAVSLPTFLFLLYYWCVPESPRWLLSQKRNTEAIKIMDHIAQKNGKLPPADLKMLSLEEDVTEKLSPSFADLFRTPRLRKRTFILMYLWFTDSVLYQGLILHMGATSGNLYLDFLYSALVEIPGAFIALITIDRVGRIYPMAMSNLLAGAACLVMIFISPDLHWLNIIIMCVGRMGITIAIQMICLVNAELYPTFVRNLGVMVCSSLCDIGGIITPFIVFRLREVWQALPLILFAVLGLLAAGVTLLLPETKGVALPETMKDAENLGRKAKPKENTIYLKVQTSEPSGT
# Experiment: in vitro
# Conditions: HEK293 cells that express human OCT1, probe 4-(4-(dimethylamino)styryl)-N-methylpyridinium
row,SMILES,inhibition at 100 µM [%]
1,CC[C@H]1OC(=O)[C@H](C)[C@@H](O[C@H]2C[C@@](C)(OC)[C@@H](O)[C@H](C)O2)[C@H](C)[C@@H](O[C@@H]2O[C@H](C)C[C@H](N(C)C)[C@H]2O)[C@](C)(O)C[C@@H](C)C(=O)[C@H](C)[C@@H](O)[C@]1(C)O [ERYTHROMYCIN],14
2,COC(=O)CCc1ccc(OCC(O)CNC(C)C)cc1 (stereo not drawn) [ESMOLOL],31.2
3,C[C@]12CC[C@@H]3c4ccc(O)cc4CC[C@H]3[C@@H]1CC[C@@H]2O [ESTRADIOL],83.5
4,COc1cc([C@@H]2c3cc4c(cc3[C@@H](O[C@@H]3O[C@@H]5CO[C@@H](C)O[C@H]5[C@H](O)[C@H]3O)[C@H]3COC(=O)[C@H]23)OCO4)cc(OC)c1O [ETOPOSIDE],7.5
5,CCOC(=O)C1=C(C)NC(C)=C(C(=O)OC)C1c1cccc(Cl)c1Cl (stereo not drawn) [FELODIPINE],15.5
6,CC(C)OC(=O)C(C)(C)Oc1ccc(C(=O)c2ccc(Cl)cc2)cc1 [FENOFIBRATE],0.2
7,O=c1[nH]cc(F)c(=O)[nH]1 [FLUOROURACIL],0.9
8,CC(C)C(=O)Nc1ccc([N+](=O)[O-])c(C(F)(F)F)c1 [FLUTAMIDE],34.1
9,Nc1nc2ncc(CNc3ccc(C(=O)N[C@@H](CCC(=O)O)C(=O)O)cc3)nc2c(=O)[nH]1 [FOLIC ACID],33
10,NS(=O)(=O)c1cc(C(=O)O)c(NCc2ccco2)cc1Cl [FUROSEMIDE],11.7
11,NCC1(CC(=O)O)CCCCC1 [GABAPENTIN],15.1
12,Nc1nc(O)c2ncn(COC(CO)CO)c2n1 [GANCICLOVIR],10.5
13,Cc1cnc(C(=O)NCCc2ccc(S(=O)(=O)NC(=O)NC3CCCCC3)cc2)cn1 [GLIPIZIDE],-12.7
14,N[C@H]1C(O)O[C@H](CO)[C@@H](O)[C@@H]1O (stereo partly drawn) [GLUCOSAMINE],13.9
15,COc1ccc(Cl)cc1C(=O)NCCc1ccc(S(=O)(=O)NC(=O)NC2CCCCC2)cc1 [GLYBURIDE],0.3
16,NS(=O)(=O)c1cc2c(cc1Cl)NCNS2(=O)=O [HYDROCHLOROTHIAZIDE],-9.8
17,CC(C)Cc1ccc(C(C)C(=O)O)cc1 (stereo not drawn) [IBUPROFEN],6.3
18,CC(=O)N1CCN(c2ccc(OCC3COC(Cn4ccnc4)(c4ccc(Cl)cc4Cl)O3)cc2)CC1 (stereo not drawn) [KETOCONAZOLE],82.3
19,CC(C(=O)O)c1cccc(C(=O)c2ccccc2)c1 (stereo not drawn) [KETOPROFEN],-9.4
20,N[C@@H](Cc1ccc(O)c(O)c1)C(=O)O [LEVODOPA],21.7
21,N[C@@H](Cc1cc(I)c(Oc2cc(I)c(O)c(I)c2)c(I)c1)C(=O)O [LEVOTHYROXINE],12.7
22,CCN(CC)CC(=O)Nc1c(C)cccc1C [LIDOCAINE],-2.3

row,SMILES,inhibition at 100 µM [%]
1,CCOC(=O)N1CCC(=C2c3ccc(Cl)cc3CCc3cccnc32)CC1 [LORATADINE],51.8
2,OC[C@@H](O)[C@@H](O)[C@H](O)[C@H](O)CO [MANNITOL],-1.4
3,Cc1cccc(CN2CCN(C(c3ccccc3)c3ccc(Cl)cc3)CC2)c1 (stereo not drawn) [MECLIZINE],16.4
4,CC(C)NCC(O)c1cc(O)cc(O)c1 (stereo not drawn) [METAPROTERENOL],12.6
5,Cn1cc[nH]c1=S [METHIMAZOLE],11.6
6,CN(Cc1cnc2nc(N)nc(N)c2n1)c1ccc(C(=O)N[C@@H](CCC(=O)O)C(=O)O)cc1 [METHOTREXATE],26.3
7,C[C@](N)(Cc1ccc(O)c(O)c1)C(=O)O [METHYLDOPA],-7.2
8,COCCc1ccc(OCC(O)CNC(C)C)cc1 (stereo not drawn) [METOPROLOL],32.4
9,CN1CCN2c3ccccc3Cc3ccccc3C2C1 (stereo not drawn) [MIANSERIN],48.4
10,O=C1CC[C@@]2(O)[C@H]3Cc4ccc(O)c5c4[C@@]2(CCN3CC2CC2)[C@H]1O5 [NALTREXONE],40.3
11,CN(C)C(=O)Oc1cccc([N+](C)(C)C)c1 [NEOSTIGMINE BROMIDE],19.4
12,CC1COc2c(N3CCN(C)CC3)c(F)cc3c(=O)c(C(=O)O)cn1c23 (stereo not drawn) [OFLOXACIN],21.1
13,Cc1ccccc1C(OCCN(C)C)c1ccccc1 (stereo not drawn) [ORPHENADRINE],77.6
14,CCN(CC)CC#CCOC(=O)C(O)(c1ccccc1)C1CCCCC1 (stereo not drawn) [OXYBUTYNIN],75.7
15,CC(=O)O[C@H]1C(=O)[C@@]2(C)[C@H]([C@H](OC(=O)c3ccccc3)[C@]3(O)C[C@H](OC(=O)[C@H](O)[C@@H](NC(=O)c4ccccc4)c4ccccc4)C(C)=C1C3(C)C)[C@]1(OC(C)=O)CO[C@@H]1C[C@@H]2O [PACLITAXEL],7.1
16,CC(=O)O[C@H]1C[C@@H]2CC[C@@H]3[C@H](CC[C@@]4(C)[C@H]3C[C@H]([N+]3(C)CCCCC3)[C@@H]4OC(C)=O)[C@@]2(C)C[C@@H]1[N+]1(C)CCCCC1 [PANCURONIUM],-10.3
17,COc1ccc(Cc2nccc3cc(OC)c(OC)cc23)cc1OC [PAPAVERINE],66.3
18,CCC1(c2ccccc2)C(=O)NC(=O)NC1=O [PHENOBARBITAL],-6
19,O=C1NC(=O)C(c2ccccc2)(c2ccccc2)N1 [PHENYTOIN],-2
20,CC[C@@H]1C(=O)OC[C@@H]1Cc1cncn1C [PILOCARPINE],17
21,CC[C@H](C)C(=O)O[C@H]1C[C@H](O)C=C2C=C[C@H](C)[C@H](CC[C@@H](O)C[C@@H](O)CC(=O)O)[C@H]21 [PRAVASTATIN],5
22,C[C@]12C=CC(=O)C=C1CC[C@@H]1[C@@H]2C(=O)C[C@@]2(C)[C@H]1CC[C@]2(O)C(=O)CO [PREDNISONE],23.3

row,SMILES,inhibition at 100 µM [%]
1,CCCN(CCC)S(=O)(=O)c1ccc(C(=O)O)cc1 [PROBENECID],-8.9
2,CCN(CC)CCNC(=O)c1ccc(N)cc1 [PROCAINAMIDE],26.5
3,C=C[C@H]1C[N@@]2CC[C@H]1C[C@@H]2[C@@H](O)c1ccnc2ccc(OC)cc12 [QUINIDINE],62.9
4,C=C[C@H]1C[N@@]2CC[C@H]1C[C@H]2[C@H](O)c1ccnc2ccc(OC)cc12 [QUININE],60.2
5,CNC(=C[N+](=O)[O-])NCCSCc1ccc(CN(C)C)o1 [RANITIDINE],28.8
6,CO[C@H]1/C=C/O[C@@]2(C)Oc3c(C)c(O)c4c(O)c(c(/C=N/N5CCN(C)CC5)c(O)c4c3C2=O)NC(=O)/C(C)=C\C=C\[C@H](C)[C@H](O)[C@@H](C)[C@@H](O)[C@@H](C)[C@H](OC(C)=O)[C@@H]1C [RIFAMPIN],26.2
7,Cc1nc2n(c(=O)c1CCN1CCC(c3noc4cc(F)ccc34)CC1)CCCC2 [RISPERIDONE],39.3
8,CN1[C@@H]2C[C@@H](OC(=O)[C@H](CO)c3ccccc3)C[C@H]1[C@@H]1O[C@@H]12 [SCOPOLAMINE],43.9
9,CCC(C)(C)C(=O)O[C@H]1C[C@@H](C)C=C2C=C[C@H](C)[C@H](CC[C@@H]3C[C@@H](O)CC(=O)O3)[C@H]21 [SIMVASTATIN],22.6
10,CC(C)NCC(O)c1ccc(NS(C)(=O)=O)cc1 (stereo not drawn) [SOTALOL],31.8
11,CC(=O)S[C@@H]1CC2=CC(=O)CC[C@]2(C)[C@H]2CC[C@@]3(C)[C@@H](CC[C@@]34CCC(=O)O4)[C@H]12 [SPIRONOLACTONE],87.9
12,O=C(O)c1cc(/N=N/c2ccc(S(=O)(=O)Nc3ccccn3)cc2)ccc1O [SULFASALAZINE],-3.7
13,CC/C(=C(\c1ccccc1)c1ccc(OCCN(C)C)cc1)c1ccccc1 [TAMOXIFEN],72.1
14,CC(C)(C)NCC(O)c1cc(O)cc(O)c1 (stereo not drawn) [TERBUTALINE],2.6
15,CC(C)(C)c1ccc(C(O)CCCN2CCC(C(O)(c3ccccc3)c3ccccc3)CC2)cc1 (stereo not drawn) [TERFENADINE],65.4
16,CN(C)[C@@H]1C(O)=C(C(N)=O)C(=O)[C@@]2(O)C(O)=C3C(=O)c4c(O)cccc4[C@@](C)(O)[C@H]3C[C@@H]12 [TETRACYCLINE],10.4
17,Cn1c(=O)c2[nH]cnc2n(C)c1=O [THEOPHYLLINE],-4.4
18,CC(C)(C)NC[C@H](O)COc1nsnc1N1CCOCC1 [TIMOLOL],39
19,CCS(=O)(=O)CCn1c([N+](=O)[O-])cnc1C [TINIDAZOLE],14.2
20,Cc1c(C)c2c(c(C)c1O)CCC(C)(COc1ccc(CC3SC(=O)NC3=O)cc1)O2 (stereo not drawn) [TROGLITAZONE],48.2
21,CCCC(CCC)C(=O)O [VALPROIC ACID],19.6

# Same assay, conditions: hek293
row,SMILES,inhibition at 100 µM [%]
1,NC(N)=Nc1nc(CSCCC(N)=NS(N)(=O)=O)cs1 [FAMOTIDINE],13.9
2,NCCc1c[nH]cn1 [HISTAMINE],4.1
3,NNc1nncc2ccccc12 [HYDRALAZINE],6.5
4,CN1CCC[C@H]1c1cccnc1 [NICOTINE],-3.7
5,CC(=O)[C@H]1CC[C@H]2[C@@H]3CCC4=CC(=O)CC[C@]4(C)[C@H]3CC[C@]12C [PROGESTERONE],55.7
6,CC(C)c1cccc(C(C)C)c1O [PROPOFOL],-17.9
7,OC(CCN1CCCCC1)(c1ccccc1)C1CCCCC1 (stereo not drawn) [TRIHEXYPHENIDYL],79.4
8,COc1cc(Cc2cnc(N)nc2N)cc(OC)c1OC [TRIMETHOPRIM],58.1
